Here are results for 16 compounds from US8299267B2, “(3-hydroxy-4-amino-butan-2-yl) -3- (2-thiazol-2-yl-pyrrolidine-1-carbonyl) benzamide derivatives and related compounds as beta-secretase inhibitors for treating” (CoMentis, Inc., priority 2007, dated 2012).

Bounds are passed on as bounds.

The term IC50 denotes the concentration that inhibits the measured activity by half.

The target in one experiment is cathepsin D (Homo sapiens, UniProt P07339). The experiment is described as follows: Inhibition of cathepsin D activity (substrate peptide ELDLAVEFWHDR, MALDI-TOF). The experiment is classed as biochemical. The note with it: cathepsin D, pH 4.1, 37 degrees C.; read-out: CDKi. The method, then:
[The procedure below names another target; the source lists this target under the same test.] (§1) A substrate peptide NH3-ELDLAVEFWHDR-CO2 (SEQ ID NO.: 1) was dissolved at 2 mg/mL in 10% glacial acetic acid and diluted into 0.009M NaOH to obtain μM concentration at pH 4.1. After equilibration at 37 degrees C., the reactions were initiated by the addition of an aliquot of memapsin 2. Aliquots were removed at time intervals, and combined with an equal volume of MALDI-TOF matrix (α-hydroxycinnamic acid in acetone, 20 mg/mL) and immediately spotted in duplicate onto a stainless-steel MALDI sample plate. MALDI-TOF mass spectrometry was performed on a PE Biosystems Voyager DE. The instrument was operated at 25,000 accelerating volts in positive mode with a 150 ns delay. Ions with a mass-to-charge ratio (m/z) were detected in the range of 650-2000 atomic mass units. Data were analyzed by the Voyager Data Explorer module to obtain ion intensity data for mass species of substrates and corresponding products in a given mixture. Relative product formation was calculated as the ratio of signal intensity of the product to the sum of signal intensities of both product and the corresponding substrate. Relative product formed per unit time was obtained from non-linear regression analysis of the data representing the initial 15% formation of product using the model: 1−e^−kT, where k was the relative hydrolytic rate constant and T was time in seconds. Initial rates were expressed relative to uninhibited controls and fit to a tight-binding model of competitive inhibition as above.

Another experiment concerns the target T1, memapsin 1 (Homo sapiens, UniProt Q9Y5Z0).
T1 sequence (Q9Y5Z0 63-518): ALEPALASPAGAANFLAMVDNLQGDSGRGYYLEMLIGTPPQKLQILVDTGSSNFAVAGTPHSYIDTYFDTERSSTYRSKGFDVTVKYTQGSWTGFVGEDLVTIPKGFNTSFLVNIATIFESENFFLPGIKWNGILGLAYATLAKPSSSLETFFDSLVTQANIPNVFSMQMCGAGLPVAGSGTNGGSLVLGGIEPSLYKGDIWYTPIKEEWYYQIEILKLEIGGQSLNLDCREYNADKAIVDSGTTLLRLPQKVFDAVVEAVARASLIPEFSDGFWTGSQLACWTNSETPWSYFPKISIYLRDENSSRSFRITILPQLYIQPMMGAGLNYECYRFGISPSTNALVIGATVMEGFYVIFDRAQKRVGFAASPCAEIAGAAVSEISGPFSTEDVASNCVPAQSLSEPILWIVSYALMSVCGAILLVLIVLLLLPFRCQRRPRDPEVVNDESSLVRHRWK
The experiment is described as follows: Inhibition of memapsin 1 beta-secretase activity (substrate peptide ELDLAVEFWHDR, MALDI-TOF). The experiment is classed as biochemical. The conditions noted are these: memapsin 1, pH 4.1, 37 degrees C.; read-out: M1Ki. How it is done: [The procedure below names another target; the source lists this target under the same test.] as §1

For another experiment, the target named is memapsin 2 (Homo sapiens, UniProt P56817). The experiment is described as follows: Inhibition of memapsin 2 beta-secretase activity toward fluorogenic substrate FS-2. In kind it is biochemical. The conditions noted are these: memapsin 2, pH 4, 37° C., 20 minutes pre-incubation, substrate FS-2; read-out: M2Ki. The method, boiled down:
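Memapsin 2 was preincubated with compound 20 min at pH 4, 37 °C, then reacted with fluorogenic substrate FS-2 (MCA-SEVNLDAEFK-DNP), an APP-derived Swedish-variant peptide. Inhibition was followed kinetically by fluorescence.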

For experiment [1], the system named is Aβ production in Chinese hamster ovary cells that over-express human APP695 with the London and Swedish mutations. Kind of experiment: Cellular Aβ IC50 determination (Aβ40 sandwich ELISA). In kind it is cell-based. The conditions noted are these: Cricetulus griseus; Aβ40 in CHO cells over-expressing human APP695, 24 h incubation. The method, boiled down:
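APP695 (London/Swedish)-overexpressing CHO cells were treated 48 h after seeding with serial dilutions from near 4 μM top concentration (0.4% DMSO) for 24 h at 37 °C. Secreted Aβ40 was quantified by sandwich ELISA relative to controls and fit to a 4-parameter IC50 model.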
On the technique in general: In an ELISA, binding on a coated surface is turned into a signal by an enzyme label.

Sequence of memapsin 2 (P56817 46-501): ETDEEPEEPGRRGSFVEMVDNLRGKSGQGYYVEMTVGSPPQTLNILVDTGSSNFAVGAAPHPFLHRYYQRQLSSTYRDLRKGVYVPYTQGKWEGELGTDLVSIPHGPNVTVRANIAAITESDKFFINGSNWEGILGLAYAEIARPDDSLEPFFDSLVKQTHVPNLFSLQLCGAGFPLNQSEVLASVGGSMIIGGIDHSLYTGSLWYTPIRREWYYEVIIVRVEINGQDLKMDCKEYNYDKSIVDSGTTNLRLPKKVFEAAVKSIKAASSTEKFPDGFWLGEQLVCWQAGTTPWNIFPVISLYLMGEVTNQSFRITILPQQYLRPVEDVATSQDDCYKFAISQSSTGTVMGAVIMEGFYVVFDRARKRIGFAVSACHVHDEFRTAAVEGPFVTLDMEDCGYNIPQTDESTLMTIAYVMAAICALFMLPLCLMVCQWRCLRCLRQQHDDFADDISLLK
Sequence of cathepsin D (P07339 65-412, species assumed): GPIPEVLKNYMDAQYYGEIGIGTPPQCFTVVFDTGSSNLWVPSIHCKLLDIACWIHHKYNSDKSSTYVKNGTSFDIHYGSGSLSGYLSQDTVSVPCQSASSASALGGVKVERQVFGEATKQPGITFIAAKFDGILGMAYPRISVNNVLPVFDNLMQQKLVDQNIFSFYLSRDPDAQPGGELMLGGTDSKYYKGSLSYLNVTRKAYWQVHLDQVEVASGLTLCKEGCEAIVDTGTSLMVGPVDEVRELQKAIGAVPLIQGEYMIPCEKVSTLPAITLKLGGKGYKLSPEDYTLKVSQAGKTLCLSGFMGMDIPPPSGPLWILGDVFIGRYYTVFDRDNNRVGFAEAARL

As for `Cc1csc([C@H]2CCCN2C(=O)c2cccc(C(=O)N[C@@H](Cc3ccccc3)[C@H](O)CNCc3cccc(C(C)(C)C)c3)c2)n1` [Compound 10, N-((2S,3R)-4-(3-tert-butylbenzylamino)-3-hydroxy-1-phenylbutan-2-yl)-3-((R)-2-(4-methylthiazol-2-yl)pyrrolidine-1-carbonyl)benzamide], the Ki was greater than 501 nM at cathepsin D, 301 to 500 nM at memapsin 1 and less than 100 nM on memapsin 2. In experiment [1], the IC50 was less than 300 nM.

Turning to `Cc1csc([C@H]2CCCN2C(=O)c2cccc(C(=O)N[C@@H](Cc3ccccc3)[C@H](O)CNCc3cccc(C(F)(F)F)c3)c2)n1` [Compound 9, N-((2S,3R)-3-hydroxy-1-phenyl-4-(3-(trifluoromethyl)benzylamino)butan-2-yl)-3-((R)-2-(4-methylthiazol-2-yl)pyrrolidine-1-carbonyl)benzamide], the Ki is greater than 501 nM at cathepsin D, 301 to 500 nM on memapsin 1 and less than 100 nM at memapsin 2. The compound also yielded an IC50 in experiment [1] of less than 300 nM.

With `Cc1csc([C@H]2CCCN2C(=O)c2cc(C(=O)N[C@@H](Cc3ccccc3)[C@H](O)CNCc3cncc(C(C)C)c3)cc(-c3cnco3)c2)n1` [Compound 33, N-((2S,3R)-3-hydroxy-4-((5-isopropylpyridin-3-yl)methylamino)-1-phenylbutan-2-yl)-3-((R)-2-(4-methylthiazol-2-yl)pyrrolidine-1-carbonyl)-5-(oxazol-5-yl)benzamide], the Ki on memapsin 2 was less than 100 nM. The same compound returned an IC50 in experiment [1] of less than 300 nM.

For `COc1cc(C(=O)N[C@@H](Cc2ccccc2)[C@H](O)CNCc2cccc(Cl)c2)cc(C(=O)N2CCC[C@@H]2c2nc(C)cs2)c1` [Compound 18, N-((2S,3R)-4-(3-chlorobenzylamino)-3-hydroxy-1-phenylbutan-2-yl)-3-methoxy-5-((R)-2-(4-methylthiazol-2-yl)pyrrolidine-1-carbonyl)benzamide], the Ki on memapsin 2 is less than 100 nM. This compound came in with an IC50 in experiment [1] of less than 300 nM.

For the compound `Cc1coc([C@H]2CCCN2C(=O)c2cc(CF)cc(C(=O)N[C@@H](Cc3ccccc3)[C@H](O)CNCc3cccc(C(C)(C)C)c3)c2)n1` [Compound 95, N-((2S,3R)-4-(3-tert-butylbenzylamino)-3-hydroxy-1-phenylbutan-2-yl)-3-(fluoromethyl)-5-((R)-2-(4-methyloxazol-2-yl)pyrrolidine-1-carbonyl)benzamide], the Ki on memapsin 2 was less than 100 nM. Further, the IC50 in experiment [1] is less than 300 nM.

For `Cc1csc([C@H]2CCCN2C(=O)c2cc(C(=O)N[C@@H](Cc3ccccc3)[C@H](O)CNCc3cccc(C(F)(F)F)c3)cc(-c3ccco3)n2)n1` [Compound 75, 2-(furan-2-yl)-N-((2S,3R)-3-hydroxy-1-phenyl-4-(3-(trifluoromethyl)benzylamino)butan-2-yl)-6-((R)-2-(4-methylthiazol-2-yl)pyrrolidine-1-carbonyl)isonicotinamide], the Ki at memapsin 2 was less than 100 nM. In experiment [1], this compound had an IC50 of less than 300 nM.

`Cc1cc(C(=O)N[C@@H](Cc2ccccc2)[C@H](O)CNCc2cncc(C(C)C)c2)cc(C(=O)N2CCC[C@@H]2c2nc(C)co2)c1` [Compound 56, N-((2S,3R)-3-hydroxy-4-((5-isopropylpyridin-3-yl)methylamino)-1-phenylbutan-2-yl)-3-methyl-5-((R)-2-(4-methyloxazol-2-yl)pyrrolidine-1-carbonyl)benzamide]: the Ki on memapsin 2 is less than 100 nM. Also, the IC50 in experiment [1] was less than 300 nM.

Turning to `Cc1csc([C@H]2CCCN2C(=O)c2cccc(C(=O)N[C@@H](Cc3ccccc3)[C@H](O)CNCc3cncc(C(C)(C)F)c3)c2)n1` [Compound 45, N-((2S,3R)-4-((5-(2-fluoropropan-2-yl)pyridin-3-yl)methylamino)-3-hydroxy-1-phenylbutan-2-yl)-3-((R)-2-(4-methylthiazol-2-yl)pyrrolidine-1-carbonyl)benzamide], at memapsin 2, the Ki was less than 100 nM. The IC50 in experiment [1] was less than 300 nM.

Take `Cc1csc([C@H]2CCCN2C(=O)c2cc(C(=O)N[C@@H](Cc3ccccc3)[C@H](O)CNCc3cccc(C(F)(F)F)c3)cc(-c3ccc(F)nc3)n2)n1` [Compound 88, 6′-fluoro-N-((2S,3R)-3-hydroxy-1-phenyl-4-(3-(trifluoromethyl)benzylamino)butan-2-yl)-6-((R)-2-(4-methylthiazol-2-yl)pyrrolidine-1-carbonyl)-2,3′-bipyridine-4-carboxamide]: the Ki at memapsin 2 fell in the range of 101 to 200 nM. The same compound yielded an IC50 in experiment [1] of less than 300 nM.

With `Cc1coc([C@H]2CCCN2C(=O)c2cccc(C(=O)N[C@@H](Cc3ccccc3)[C@H](O)CNCc3cncc(C(C)(C)F)c3)c2)n1` [Compound 39, N-((2S,3R)-4-((5-(2-fluoropropan-2-yl)pyridin-3-yl)methylamino)-3-hydroxy-1-phenylbutan-2-yl)-3-((R)-2-(4-methyloxazol-2-yl)pyrrolidine-1-carbonyl)benzamide], at memapsin 2, the Ki was less than 100 nM. This compound came in with an IC50 in experiment [1] of less than 300 nM.

Regarding `COC[C@H]1CCCN1C(=O)c1cc(C)cc(C(=O)N[C@@H](Cc2ccccc2)[C@H](O)CNCc2cncc(C(C)C)c2)c1` [Compound 23, N-((2S,3R)-3-hydroxy-4-((5-isopropylpyridin-3-yl)methylamino)-1-phenylbutan-2-yl)-3-((R)-2-(methoxymethyl)pyrrolidine-1-carbonyl)-5-methylbenzamide], the Ki on memapsin 2 is less than 100 nM. The IC50 in experiment [1] was less than 300 nM.

Take `Cc1coc([C@H]2CCCN2C(=O)c2cccc(C(=O)N[C@@H](Cc3ccccc3)[C@H](O)CNCc3cccc(C(C)(C)C)c3)c2)n1` [Compound 70, N-((2S,3R)-4-(3-tert-butylbenzylamino)-3-hydroxy-1-phenylbutan-2-yl)-3-((R)-2-(4-methyloxazol-2-yl)pyrrolidine-1-carbonyl)benzamide]: on memapsin 2, the Ki is less than 100 nM. The same compound had an IC50 in experiment [1] of less than 300 nM.

As for `Cc1coc([C@H]2CCCN2C(=O)c2cccc(C(=O)N[C@@H](Cc3ccccc3)[C@H](O)CNCc3cncc(C(C)(F)F)c3)c2)n1` [Compound 102, N-((2S,3R)-4-((5-(1,1-difluoroethyl)pyridin-3-yl)methylamino)-3-hydroxy-1-phenylbutan-2-yl)-3-((R)-2-(4-methyloxazol-2-yl)pyrrolidine-1-carbonyl)benzamide], at memapsin 2, the Ki is less than 100 nM. The same compound yielded an IC50 in experiment [1] of less than 300 nM.

Take `COc1cccc([C@H](C)NC[C@@H](O)[C@H](Cc2ccccc2)NC(=O)c2cccc(C(=O)N3CCC[C@@H]3c3nc(C)cs3)c2)c1` [Compound 22, N-((2S,3R)-3-hydroxy-4-((S)-1-(3-methoxyphenyl)ethylamino)-1-phenylbutan-2-yl)-3-((R)-2-(4-methylthiazol-2-yl)pyrrolidine-1-carbonyl)benzamide]: the Ki on memapsin 2 is less than 100 nM. For the same compound, the IC50 in experiment [1] is less than 300 nM.

`Cc1coc([C@H]2CCCN2C(=O)c2cncc(C(=O)N[C@@H](Cc3ccccc3)[C@H](O)CNCc3cncc(C(C)(C)F)c3)c2)n1` [Compound 73, N-((2S,3R)-4-((5-(2-fluoropropan-2-yl)pyridin-3-yl)methylamino)-3-hydroxy-1-phenylbutan-2-yl)-5-((R)-2-(4-methyloxazol-2-yl)pyrrolidine-1-carbonyl)nicotinamide]: the Ki on memapsin 2 is less than 100 nM. Besides, the concentration for half-maximal inhibition (IC50) in experiment [1] is less than 300 nM.

`CNc1cc(CNC[C@@H](O)[C@H](Cc2ccccc2)NC(=O)c2cccc(C(=O)N3CCC[C@@H]3c3nc(C)cs3)c2)cc(C(F)(F)F)c1` [Compound 85, N-((2S,3R)-3-hydroxy-4-(3-(methylamino)-5-(trifluoromethyl)benzylamino)-1-phenylbutan-2-yl)-3-((R)-2-(4-methylthiazol-2-yl)pyrrolidine-1-carbonyl)benzamide]: on memapsin 2, the Ki is less than 100 nM. The same compound showed an IC50 in experiment [1] of less than 300 nM.
